Reference: patent US10428051B2 (priority 2015, dated 2019)
Read-outs that look alike come from different tables or passages of the source.

Molecular target: human σ1 receptor (Homo sapiens, UniProt Q99720)
Assay: biochemical
Format: binding
Design: μ and σ1 dual (binding to the σ1 receptor and the μ-opioid receptor expressed as Ki): key to the marks not given beside the values

Sequence of human σ1 receptor (Q99720 whole entry): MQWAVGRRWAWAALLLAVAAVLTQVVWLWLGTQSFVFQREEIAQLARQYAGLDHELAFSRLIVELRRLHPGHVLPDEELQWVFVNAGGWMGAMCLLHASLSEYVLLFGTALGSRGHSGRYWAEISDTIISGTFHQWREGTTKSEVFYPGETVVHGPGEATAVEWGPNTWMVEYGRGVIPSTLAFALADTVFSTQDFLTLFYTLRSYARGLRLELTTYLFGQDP

O=C(c1cccs1)N(CC1(N2CCN(Cc3ccccc3)CC2)CCOCC1)c1ccccn1 [Example 38, N-((4-(4-benzylpiperazin-1-yl)tetrahydro-2H-pyran-4-yl)methyl)-N-(pyridin-2-yl)thiophene-2-carboxamide]
μ and σ1 dual (binding to the σ1 receptor and the μ-opioid receptor expressed as Ki): ++

CCC(=O)N(CC1(N2CCN(Cc3ccccc3)CC2)CCOCC1)C(C)c1ccccc1 (stereo not drawn) [Example 13, N-((4-(4-benzylpiperazin-1-yl)tetrahydro-2H-pyran-4-yl)methyl)-N-(1-phenylethyl)propionamide]
Ki: < 0.1 µM

CCC(=O)N(CC1(N2CCN(CCOC(C)C)CC2)CCOC(C)(C)C1)c1cccc(C(F)(F)F)n1 (stereo not drawn) [Example 161, N-((4-(4-(2-isopropoxyethyl)piperazin-1-yl)-2,2-dimethyltetrahydro-2H-pyran-4-yl)methyl)-N-(6-(trifluoromethyl)pyridin-2-yl)propionamide]
Ki: < 0.5 µM

CCC(=O)N(CC1(N2CCN(CCOCC(C)(C)O)CC2)CCOCC1)c1cccc(C(F)(F)F)n1 [Example 186, N-((4-(4-(2-(2-hydroxy-2-methylpropoxy)ethyl)piperazin-1-yl)tetrahydro-2H-pyran-4-yl)methyl)-N-(6-(trifluoromethyl)pyridin-2-yl)propionamide]
μ and σ1 dual (binding to the σ1 receptor and the μ-opioid receptor expressed as Ki): ++

CCC(=O)N(CC(C)(C)N1CCN(CCc2ncccc2F)CC1)c1ccccn1 [Example 70, N-(2-(4-(2-(3-fluoropyridin-2-yl)ethyl)piperazin-1-yl)-2-methylpropyl)-N-(pyridin-2-yl)propionamide]
μ and σ1 dual (binding to the σ1 receptor and the μ-opioid receptor expressed as Ki): ++

CCC(=O)N(CC1(N2CCN(CCOC(C)C)CC2)CCOC(C)(C)C1)c1ncccc1F (stereo not drawn) [Example 167, N-(3-fluoropyridin-2-yl)-N-((4-(4-(2-isopropoxyethyl)piperazin-1-yl)-2,2-dimethyltetrahydro-2H-pyran-4-yl)methyl)propionamide]
Ki: < 0.5 µM

CCOCCN1CCN(C2(CN(C(=O)CC)c3ncccc3F)CCOC(C)(C)C2)CC1 (stereo not drawn) [Example 169, N-((4-(4-(2-ethoxyethyl)piperazin-1-yl)-2,2-dimethyltetrahydro-2H-pyran-4-yl)methyl)-N-(3-fluoropyridin-2-yl)propionamide]
Ki: > 0.5 µM

CCC(=O)N(CC1(N2CCN(Cc3ccccc3)CC2)CC1)c1ncccc1C#N [Example 80, N-((1-(4-benzylpiperazin-1-yl)cyclopropyl)methyl)-N-(3-cyanopyridin-2-yl)propionamide]
Ki: < 0.5 µM

CCNC(=O)N(CC1(N2CCN(Cc3ccccc3)CC2)CC1)c1ccccc1 [Example 52, 1-((1-(4-benzylpiperazin-1-yl)cyclopropyl)methyl)-3-ethyl-1-phenylurea]
Ki: < 0.5 µM

CCC(=O)N(CC1(N2CCN(CCOC(F)(F)F)CC2)CCOCC1)c1cccc(C(F)(F)F)n1 [Example 141, N-((4-(4-(2-(trifluoromethoxy)ethyl)piperazin-1-yl)tetrahydro-2H-pyran-4-yl)methyl)-N-(6-(trifluoromethyl)pyridin-2-yl)propionamide]
Ki: < 0.5 µM

CCC(=O)N(CC1(N2CCN(Cc3ccncc3)CC2)CCOCC1)c1ccccc1 [Example 106, N-phenyl-N-((4-(4-(pyridin-4-ylmethyl)piperazin-1-yl)tetrahydro-2H-pyran-4-yl)methyl)propionamide]
μ and σ1 dual (binding to the σ1 receptor and the μ-opioid receptor expressed as Ki): ++

CCC(=O)N(CC1(N2CCN(Cc3ccc(C(F)(F)F)nc3)CC2)CCOCC1)c1ccccc1 [Example 103, N-phenyl-N-((4-(4-((6-(trifluoromethyl)pyridin-3-yl)methyl)piperazin-1-yl)tetrahydro-2H-pyran-4-yl)methyl)propionamide]
Ki: > 0.5 µM

CCC(=O)N(CC1(N2CCN(Cc3ccccc3)CC2)CC1)c1cnccc1C(F)(F)F [Example 78, N-((1-(4-benzylpiperazin-1-yl)cyclopropyl)methyl)-N-(4-(trifluoromethyl)pyridin-3-yl)propionamide]
Ki: < 0.5 µM

CCC(=O)N(CC1(N2CCN(Cc3ccccc3F)CC2)CCOCC1)c1ccccc1 [Example 104, N-((4-(4-(2-fluorobenzyl)piperazin-1-yl)tetrahydro-2H-pyran-4-yl)methyl)-N-phenylpropionamide]
Ki: < 0.5 µM

CCC(=O)N(CC1(N2CCN(Cc3ccccc3)CC2)CC1)c1nccs1 [Example 92, N-((1-(4-benzylpiperazin-1-yl)cyclopropyl)methyl)-N-(thiazol-2-yl)propionamide]
Ki: < 0.5 µM

CCOCCN1CC2CN(C3(CN(C(=O)CC)c4cccc(C(F)(F)F)n4)CCOCC3)CC2C1 (stereo not drawn) [Example 200, N-((4-(5-(2-ethoxyethyl)hexahydropyrrolo[3,4-c]pyrrol-2(1H)-yl)tetrahydro-2H-pyran-4-yl)methyl)-N-(6-(trifluoromethyl)pyridin-2-yl)propionamide]
Ki (read-out: μ and σ1 dual (binding to the σ1 receptor and the μ-opioid receptor expressed as Ki)): > 0.5 µM

CCC(=O)N(CC1(N2CCN(Cc3ccccc3)CC2)CCOCC1)c1ccccc1Cl [Example 2, N-((4-(4-benzylpiperazin-1-yl)tetrahydro-2H-pyran-4-yl)methyl)-N-(2-chlorophenyl)propionamide]
Ki: < 0.1 µM

CCC(=O)N(CC)CC1(N2CCN(Cc3ccccc3)CC2)CCOCC1 [Example 99, N-((4-(4-benzylpiperazin-1-yl)tetrahydro-2H-pyran-4-yl)methyl)-N-ethylpropionamide]
μ and σ1 dual (binding to the σ1 receptor and the μ-opioid receptor expressed as Ki): ++

CCC(=O)N(CC1(N2CCN(Cc3ccccc3)CC2)CCOCC1)c1ccc(C(F)(F)F)cn1 [Example 7, N-((4-(4-benzylpiperazin-1-yl)tetrahydro-2H-pyran-4-yl)methyl)-N-(5-(trifluoromethyl)pyridin-2-yl)propionamide]
μ and σ1 dual (binding to the σ1 receptor and the μ-opioid receptor expressed as Ki): ++

CCC(=O)N(CC1(N2CCN(CCc3cccnc3)CC2)CCOCC1)c1cccc(C(F)(F)F)n1 [Example 201, N-((4-(4-(2-(pyridin-3-yl)ethyl)piperazin-1-yl)tetrahydro-2H-pyran-4-yl)methyl)-N-(6-(trifluoromethyl)pyridin-2-yl)propionamide]
μ and σ1 dual (binding to the σ1 receptor and the μ-opioid receptor expressed as Ki): ++

CCC(=O)N(CC1(N2CCN(Cc3ccccc3)CC2)CCC1)c1cccc(C(F)(F)F)n1 [Example 197, N-((1-(4-benzylpiperazin-1-yl)cyclobutyl)methyl)-N-(6-(trifluoromethyl)pyridin-2-yl)propionamide]
Ki: < 0.1 µM

CCOCCN1CCN(C2(CN(C(=O)CC)c3cccc(C#N)n3)CCOC(C)(C)C2)CC1 (stereo not drawn) [Example 171, N-(6-cyanopyridin-2-yl)-N-((4-(4-(2-ethoxyethyl)piperazin-1-yl)-2,2-dimethyltetrahydro-2H-pyran-4-yl)methyl)propionamide]
Ki: > 0.5 µM

CCC(=O)N(CC1(N2CCN(C(C)CC)CC2)CCOCC1)c1cccc(C(F)(F)F)n1 (stereo not drawn) [Example 139, N-((4-(4-sec-butylpiperazin-1-yl)tetrahydro-2H-pyran-4-yl)methyl)-N-(6-(trifluoromethyl)pyridin-2-yl)propionamide]
μ and σ1 dual (binding to the σ1 receptor and the μ-opioid receptor expressed as Ki): ++

CCC(=O)N(CC1(N2CCN(Cc3ccccc3)CC2)CCOC(C)(C)C1)c1ncccc1C(F)(F)F (stereo not drawn) [Example 67, N-((4-(4-benzylpiperazin-1-yl)-2,2-dimethyltetrahydro-2H-pyran-4-yl)methyl)-N-(3-(trifluoromethyl)pyridin-2-yl)propionamide]
Ki: < 0.5 µM
